{"source": "patent US20230285261A1", "about": "“FRAGRANCE COMPOSITION COMPRISING A FRAGRANCE COMPONET AND A NON-ODOROUS FRAGRANCE MODULATOR” (Coty Inc., priority 2020, published 2023)", "excerpt": "Classical perfume contain a high % of ethanol to solubilize perfume raw materials.", "data": [{"molecule": "C[C@@H]1CC[C@H]2C(C)(C)[C@H]3C[C@@]12CC[C@@]3(C)O", "note": "[Cerdol Crystals, Cedrol Crystals]", "values": [{"measurement": "Max Solubility in 83% Ethanol/17% Glucam solution", "value": 0.431, "unit": "g"}, {"measurement": "Max Solubility in 88% Ethanol/12% Water solution", "value": 0.273, "unit": "g"}, {"measurement": "solubility increase, glucam-containing vs classical ethanol solution", "value": 57.8, "unit": "%"}]}]}
